Source: ChEMBL document CHEMBL6083290, “Proline Analogues in Drug Design: Current Trends and Future Prospects” (J Med Chem, 2024)
Starred links: 1 amine or outer side, 2 acyl side, 3 side chain; linkers in the order of their positions; H or OH if unused. Non-standard residues stand in square brackets, D forms with d. Residues, ends and D or L forms follow the SMILES beside them. ξ: configuration not given here. *: point of attachment. X3 = CC(C)C[C@H](N[*:1])[C@H](O)C[C@H](C(=O)[*:2])C(C)C; X2 = O=C(C1[C@@H](F)[C@@H](O)CN1[*:1])[*:2]; X1 = O=C(C1[C@H](F)[C@@H](O)CN1[*:1])[*:2]; ξPro(4R-OH) = O=C(O)C1C[C@@H](O)CN1; NHCH2(2-pyridyl) = c1ccc(CN*)nc1; αMeP = C[C@@]1(C(=O)O)CCCN1; Boc = CC(C)(C)OC(=O)*

Legend:
[1] = target: T1, Replicase polyprotein 1ab (Severe acute respiratory syndrome coronavirus 2, UniProt P0DTD1)
Description: Inhibition of SARS-CoV-2 main protease

[2] = Lipophilicity, logP of compound; conditions: octanol/water
[3] = target: T1, Replicase polyprotein 1ab; remark: listed apart in the source
Description: Inhibition of SARS-CoV-2 main protease extracted from Escherichia coli BL21 (DE3) cells

SARS-CoV-2 = experiment: microbe, parasite or virus in culture; conditions: Severe acute respiratory syndrome coronavirus 2, 2019-nCoV Muc-IMB-1, Vero C1008, 48 h
Description: Antiviral activity against SARS-CoV-2 2019-nCoV Muc-IMB-1 infected in Vero E6 cells assessed as reduction in viral replication measured after 48 hrs by qRT-PCR analysis

[4] = target: Endothelial PAS domain-containing protein 1 (Homo sapiens, UniProt Q99814); experiment: Binding affinity to HIF-2alpha (unknown origin) assessed as dissociation constant
Endothelial PAS domain-containing protein 1, sequence (Q99814 whole entry, the tested form may be a part): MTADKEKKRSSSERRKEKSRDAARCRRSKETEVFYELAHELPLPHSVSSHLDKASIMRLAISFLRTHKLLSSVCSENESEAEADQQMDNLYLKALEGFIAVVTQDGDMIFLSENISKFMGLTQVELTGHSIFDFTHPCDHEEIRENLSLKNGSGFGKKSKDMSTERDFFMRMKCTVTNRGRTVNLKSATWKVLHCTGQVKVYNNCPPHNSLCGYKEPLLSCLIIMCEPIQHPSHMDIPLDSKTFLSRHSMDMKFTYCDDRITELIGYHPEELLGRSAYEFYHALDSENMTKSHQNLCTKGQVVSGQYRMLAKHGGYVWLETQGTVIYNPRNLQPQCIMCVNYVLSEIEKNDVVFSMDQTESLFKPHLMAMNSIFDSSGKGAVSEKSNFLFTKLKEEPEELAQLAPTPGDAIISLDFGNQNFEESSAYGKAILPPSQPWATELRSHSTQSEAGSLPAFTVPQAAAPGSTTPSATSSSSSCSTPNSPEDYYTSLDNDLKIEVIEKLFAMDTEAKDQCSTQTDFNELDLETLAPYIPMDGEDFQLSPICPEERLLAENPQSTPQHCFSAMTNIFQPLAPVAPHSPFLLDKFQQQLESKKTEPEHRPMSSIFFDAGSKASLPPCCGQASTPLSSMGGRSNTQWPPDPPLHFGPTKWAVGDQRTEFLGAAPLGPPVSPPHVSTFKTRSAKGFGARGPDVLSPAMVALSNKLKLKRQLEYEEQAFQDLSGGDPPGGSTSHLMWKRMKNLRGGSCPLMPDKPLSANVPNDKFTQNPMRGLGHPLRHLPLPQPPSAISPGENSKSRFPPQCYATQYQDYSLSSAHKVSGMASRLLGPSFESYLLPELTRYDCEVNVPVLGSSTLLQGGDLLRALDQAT

[5] = Inhibition of Glutamate receptor (unknown origin)
Renin = target: T2, Renin (Homo sapiens, UniProt P00797); experiment: Inhibition of renin (unknown origin) using Arg-Glu(EDANS)-lle-His-Pro-Phe-His-Leu-Val-lle-His-Thr-Lys(dabcyl)-Arg as substrate incubated for 10 mins by fluorescence based assay
T2 sequence (P00797 whole entry): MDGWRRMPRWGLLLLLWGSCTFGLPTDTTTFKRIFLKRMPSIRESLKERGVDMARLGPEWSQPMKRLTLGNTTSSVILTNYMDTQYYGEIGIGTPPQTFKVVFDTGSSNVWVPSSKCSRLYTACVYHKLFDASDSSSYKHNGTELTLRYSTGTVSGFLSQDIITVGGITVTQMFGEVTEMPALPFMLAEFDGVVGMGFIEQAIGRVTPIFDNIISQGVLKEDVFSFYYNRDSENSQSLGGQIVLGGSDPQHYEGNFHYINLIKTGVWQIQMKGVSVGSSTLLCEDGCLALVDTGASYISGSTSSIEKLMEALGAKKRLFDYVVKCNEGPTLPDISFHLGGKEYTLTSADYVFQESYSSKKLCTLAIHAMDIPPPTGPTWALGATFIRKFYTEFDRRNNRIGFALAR

L-363 = experiment: Antiproliferative activity against human L-363 cells assessed as reduction in cell growth incubated for 72 hrs by MTT assay; conditions: L-363, 72 h
MCF7 = experiment: Antiproliferative activity against human MCF7 cells assessed as reduction in cell viability incubated for 48 hrs by MTT assay; conditions: MCF7, 48 h
[6] = target: Phosphatidylinositol 4,5-bisphosphate 3-kinase catalytic subunit alpha isoform (Homo sapiens, UniProt P42336); experiment: Inhibition of PI3Kalpha (unknown origin) using PIP2 as substrate measured after 30 mins by TR-FRET assay
Phosphatidylinositol 4,5-bisphosphate 3-kinase catalytic subunit alpha isoform, sequence (P42336 whole entry, canonical isoform): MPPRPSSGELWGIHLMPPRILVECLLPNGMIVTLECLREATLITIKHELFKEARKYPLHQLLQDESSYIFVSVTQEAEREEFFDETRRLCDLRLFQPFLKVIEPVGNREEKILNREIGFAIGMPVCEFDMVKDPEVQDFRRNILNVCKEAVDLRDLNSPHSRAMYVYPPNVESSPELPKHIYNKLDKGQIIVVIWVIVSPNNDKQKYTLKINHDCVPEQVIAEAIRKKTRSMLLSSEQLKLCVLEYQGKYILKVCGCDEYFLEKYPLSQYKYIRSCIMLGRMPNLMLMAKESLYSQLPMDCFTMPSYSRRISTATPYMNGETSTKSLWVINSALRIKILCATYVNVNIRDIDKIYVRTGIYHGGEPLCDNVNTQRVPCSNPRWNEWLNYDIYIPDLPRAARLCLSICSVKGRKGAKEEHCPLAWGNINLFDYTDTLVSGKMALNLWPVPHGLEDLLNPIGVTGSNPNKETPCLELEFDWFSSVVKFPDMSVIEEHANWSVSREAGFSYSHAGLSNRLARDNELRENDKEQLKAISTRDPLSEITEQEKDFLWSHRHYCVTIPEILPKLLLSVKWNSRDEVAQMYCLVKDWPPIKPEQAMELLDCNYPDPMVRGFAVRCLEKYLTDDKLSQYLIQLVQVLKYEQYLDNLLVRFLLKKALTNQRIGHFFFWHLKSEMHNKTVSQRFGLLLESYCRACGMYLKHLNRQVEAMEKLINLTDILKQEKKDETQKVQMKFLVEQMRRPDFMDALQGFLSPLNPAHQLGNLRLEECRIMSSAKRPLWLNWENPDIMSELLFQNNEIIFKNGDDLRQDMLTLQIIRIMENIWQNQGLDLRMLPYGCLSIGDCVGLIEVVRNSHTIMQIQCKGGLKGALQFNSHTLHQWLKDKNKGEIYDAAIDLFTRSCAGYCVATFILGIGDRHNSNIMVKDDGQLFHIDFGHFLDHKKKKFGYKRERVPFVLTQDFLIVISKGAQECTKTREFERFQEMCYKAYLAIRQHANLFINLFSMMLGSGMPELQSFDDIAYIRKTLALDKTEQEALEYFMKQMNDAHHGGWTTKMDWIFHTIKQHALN

[7] = Metabolic stability in rat liver microsomes assessed as half life
in vitro = conditions: rat, plasma

SMILES: COc1ccc2nccc(C(=O)NCC(=O)N3CC(F)(F)C[C@H]3C#N)c2c1
- IC50 [1]: 9 nM

SMILES: Cc1c(COc2cc(OCc3cccc(C#N)c3)c(CN3C[C@H](O)C[C@@H]3C(=O)O)cc2Cl)cccc1-c1ccc2c(c1)OCCO2
- IC50 [1]: 10.9 nM

SMILES: COc1ccc(/C=C/C(=O)N2C[C@@H](NC(=O)c3cccnc3)C[C@H]2C(=O)NO)cc1OC
- logP [2]: 0.1
- IC50 [3]: 9 nM

SMILES: CC(C)(C)[C@H](NC(=O)C(F)(F)F)C(=O)N1C[C@H]2[C@@H]([C@H]1C(=O)N[C@H](C#N)C[C@@H]1CCNC1=O)C2(C)C
- EC50 (SARS-CoV-2): 5600 nM

SMILES: COc1cccc2[nH]c(C(=O)N[C@@H](CC(C)C)C(=O)N[C@H](C#N)C[C@@H]3CCNC3=O)cc12
- EC50 (SARS-CoV-2): 1200 nM

SMILES: COc1cccc2[nH]c(C(=O)N3C[C@H]4[C@@H]([C@H]3C(=O)N[C@@H](C[C@@H]3CCNC3=O)C(=O)c3nc5ccccc5s3)C4(C)C)cc12
- EC50 (SARS-CoV-2): 1400 nM

SMILES: CC(=O)N[C@@H](C(=O)N1C[C@H](O)[C@H](F)C1C(=O)NCc1ccc(-c2scnc2C)cc1)C(C)(C)C (some centres not stated)
- Kd [4]: 0.24 nM

SMILES: C[C@@H](C(=O)N[C@H](C(=O)N1C[C@H](OC(F)F)C[C@H]1C(=O)N[C@H](C#N)C[C@@H]1CCNC1=O)C(C)(C)C)N(C)C(=O)CCCCCNc1cccc2c1C(=O)N(C1CCC(=O)NC1=O)C2=O (some centres not stated)
- IC50 [3]: 182 nM

SMILES: CC(=O)N[C@@H](C(=O)N1C[C@H](O)[C@@H](F)C1C(=O)NCc1ccc(-c2scnc2C)cc1)C(C)(C)C (some centres not stated)
- Kd [4]: 3.1 nM

SMILES: O=C(O)[C@@H]1C[C@H]2C[C@H](CN3CC(F)(F)C[C@H]3C(=O)O)CC[C@H]2CN1
- IC50 [5]: 45 nM

SMILES: CC[C@H](C)[C@H](NC(=O)[C@@H](C[C@@H](O)[C@H](CC(C)C)NC(=O)[C@H](Cc1c[nH]cn1)NC(=O)[C@H](Cc1ccccc1)NC(=O)[C@]1(C)CCCN1C(=O)OC(C)(C)C)C(C)C)C(=O)NCc1ccccn1 (Boc-[αMeP]FH[X3]I-{NHCH2(2-pyridyl)})
- IC50 (Renin): 2 nM

SMILES: CC[C@H](C)[C@H](NC(=O)[C@H](CCC(=O)O)NC(=O)[C@H](Cc1ccccc1)NC(=O)[C@H](CC(=O)O)NC(=O)[C@H](CC(=O)O)NC(=O)[C@H](CC(=O)O)NC(=O)[C@H](CCSC)NC(=O)[C@@H]1CCCN1C(=O)[C@H](Cc1ccc(O)cc1)NC(=O)C1[C@H](F)[C@@H](O)CN1C(=O)[C@H](C)NC(=O)[C@H](CC(C)C)NC(=O)[C@H](C)NC(=O)[C@H](CCC(=O)O)NC(=O)[C@@H](N)CC(=O)O)C(=O)N[C@@H](CCCNC(=N)N)C(=O)N[C@@H](CO)C(=O)N[C@@H](Cc1ccccc1)C(=O)O (some centres not stated) (H-DEALA[X1]YPMDDDFEIRSF-OH)
- Kd [4]: 52 nM

SMILES: CC[C@H](C)[C@H](NC(=O)[C@H](CCC(=O)O)NC(=O)[C@H](Cc1ccccc1)NC(=O)[C@H](CC(=O)O)NC(=O)[C@H](CC(=O)O)NC(=O)[C@H](CC(=O)O)NC(=O)[C@H](CCSC)NC(=O)[C@@H]1CCCN1C(=O)[C@H](Cc1ccc(O)cc1)NC(=O)C1[C@@H](F)[C@@H](O)CN1C(=O)[C@H](C)NC(=O)[C@H](CC(C)C)NC(=O)[C@H](C)NC(=O)[C@H](CCC(=O)O)NC(=O)[C@@H](N)CC(=O)O)C(=O)N[C@@H](CCCNC(=N)N)C(=O)N[C@@H](CO)C(=O)N[C@@H](Cc1ccccc1)C(=O)O (some centres not stated) (H-DEALA[X2]YPMDDDFEIRSF-OH)
- Kd [4]: 12 nM

SMILES: CC[C@H](C)[C@H](NC(=O)[C@H](CCC(=O)O)NC(=O)[C@H](Cc1ccccc1)NC(=O)[C@H](CC(=O)O)NC(=O)[C@H](CC(=O)O)NC(=O)[C@H](CC(=O)O)NC(=O)[C@H](CCSC)NC(=O)[C@@H]1CCCN1C(=O)[C@H](Cc1ccc(O)cc1)NC(=O)C1C[C@@H](O)CN1C(=O)[C@H](C)NC(=O)[C@H](CC(C)C)NC(=O)[C@H](C)NC(=O)[C@H](CCC(=O)O)NC(=O)[C@@H](N)CC(=O)O)C(=O)N[C@@H](CCCNC(=N)N)C(=O)N[C@@H](CO)C(=O)N[C@@H](Cc1ccccc1)C(=O)O (stereo partly drawn) (H-DEALA[ξPro(4R-OH)]YPMDDDFEIRSF-OH)
- Kd [4]: 11 nM

SMILES: Cc1nc(NC(=O)N2CCC[C@H]2C(N)=O)sc1-c1ccnc(C(C)(C)C(F)(F)F)c1 [ALPELISIB]
- IC50 (L-363): 170 nM
- IC50 (MCF7): 1200 nM

SMILES: O=C(/C=C/c1cccc(S(=O)(=O)Nc2ccccc2)c1)NO [BELINOSTAT]
- IC50 [6]: 2.9 nM
- IC50 (L-363): 170 nM
- IC50 (MCF7): 1200 nM

SMILES: CS(=O)(=O)c1cncc(C(=O)N2[C@@H](C(=O)N[C@@H](c3cc(F)c(C(F)(F)F)cc3F)C3CC3)C[C@H]3C[C@H]32)c1 [NELUTROCTIV]
- half-life [7]: 30 min

SMILES: C[C@@]1(C(=O)N[C@@H](CCC(=O)O)C(=O)O)CCCN1C(=O)CN [TROFINETIDE] (H-Gly-[αMeP]-Glu-OH)
- half-life (in vitro): 49 min
